The results in this text go back to patent US5661139A, “Bis-(2-aryl) hydrazones” (Alteon Inc., priority 1995, dated 1997).

As usually defined, the IC50 is the concentration at which inhibition is half-maximal.

Where only a bound is given, the exact number is not on record here.

System in one data set: not listed separately
Briefly: Inhibition of cross-linking of N-acetyl glycyl-lysine methyl ester in the presence of ribose (fluorescence). It is filed as biochemical. The settings on record: 0.5M sodium phosphate buffer pH 7.4, ribose, 37 C, 16-24 hours; fluorescence ex 350 nm / em 400 nm. The method, then: N-acetylglycyllysine methyl ester (DP in formula below) Ribose (R in formula below)
0.5M sodium phosphate buffer pH 7.4 N-acetylglycyllysine methyl ester in 0.5M sodium phosphate buffer, pH 7.4
Test compounds dissolved in the above buffer and the pH is adjusted to 7.4, if necessary
Reaction mixtures are prepared as follows:
and incubated at 37 C for 16-24 hours. At the end of the incubation period, the fluroescence is read using an excitation wavelength of 350 nm and emission wavelenth of 400 nm. The inhibition of the cross-linking is calculated from the decrease in the fluorescence in the presence of the test compounds according to the formula:
Inhibition (%)=100×[DPRC fluorescence-RC fluorescence]/DPR
Consider `CC(C=NNc1ccccc1C(=O)OCc1ccc([N+](=O)[O-])cc1)=NNc1ccccc1C(=O)OCc1ccc([N+](=O)[O-])cc1`, for which the IC50 was found to be 10 mM.

Turning to `CC(C=NNc1ccccc1C(=O)OCCOP(=O)(O)O)=NNc1ccccc1C(=O)OCCOP(=O)(O)O` [Methyl Glyoxal Bis-(2-Hydroxyethylphosphate-2-Hydrazinobenzoate) Hydrazone], the IC50 is 0.597 mM.

For the molecule `CC(C=NNc1ccc(C(=O)O)cc1)=NNc1ccc(C(=O)O)cc1` [Methyl Glyoxal Bis-(4-Hydrazinobenzoic Acid) Hydrazone], the IC50 was 0.118 mM.

With `CCOC(=O)c1ccccc1NN=CC(C)=NNc1ccccc1C(=O)OCC` [Methyl Glyoxal Bis-(Diethyl 2-Hydrazinobenzoate) Hydrazone], the IC50 was found to be 10 mM.

Take `COCCOCCOC(=O)c1ccccc1NN=CC(C)=NNc1ccccc1C(=O)OCCOCCOC` [Methyl Glyoxal Bis-(Diethylene Glycol Methyl Ether 2-Hydrazinobenzoate) Hydrazone]: the IC50 was greater than 10 mM.

For `COC(=O)c1ccccc1NN=CC(C)=NNc1ccccc1C(=O)OC` [Methyl Glyoxal Bis-(Dimethyl 2-Hydrazinobenzoate)Hydrazone], the IC50 was greater than 10 mM.

`COC(=O)c1ccc(NN=CC(C)=NNc2ccc(C(=O)OC)cc2)cc1` [Methyl Glyoxal Bis-(Dimethyl 4-Hydrazinobenzoate) Hydrazone]: the IC50 was determined as 10 mM.

For `CC(C=NNc1ccccc1)=NNc1ccccc1` [Methyl Glyoxal Bis-(Phenylhydrazine) Hydrazone], the IC50 was greater than 10 mM.

For the molecule `CC(C=NNc1ccccc1C(=O)OCCOCCOCCO)=NNc1ccccc1C(=O)OCCOCCOCCO` [Methyl Glyoxal Bis-(Triethylene Glycol 2-Hydrazinobenzoate) Hydrazone], the IC50 is 1.53 mM.

With `CC(C=NNc1ccccc1C(=O)OCC(O)CO)=NNc1ccccc1C(=O)OCC(O)CO` (centres unmarked) [Methyl Glyoxal Bis-[1-(2,3-Dihydroxypropane)-2-Hydrazinobenzoate] Hydrazone], the IC50 is greater than 3 mM.

On to `CC(C=NNc1ccccc1C(=O)OCCO)=NNc1ccccc1C(=O)OCCO` [Methyl Glyoxal Bis-[1-(2-Hydroxyethane)-2-Hydrazinobenzoate] Hydrazone], for which the IC50 was 3 mM.

Turning to `CC(C=NNc1ccccc1C(=O)OCc1ccncc1)=NNc1ccccc1C(=O)OCc1ccncc1` [Methyl Glyoxal Bis-[4-Methylpyridyl)-2-Hydrazinobenzoate] Hydrazone], the IC50 came to 1.24 mM.

Take `CC(C=NNc1ccccc1C(=O)O)=NNc1ccccc1C(=O)O` [Methylglyoxal Bis-(2-Hydrazinobenzoic Acid) Hydrazone]: the concentration for half-maximal inhibition (IC50) was found to be 0.156 mM.

For “Methyl Glyoxal Bis-[(1-Hydroxymethyl-1-Acetoxy)-2-Hydrazinobenzoate] Hydrazone”, the IC50 came out at 0.764 mM.

A further data set deals with fixed protein (gelatin, i.e., collagen) surface. Kind of data set: Surface browning experiment on gelatin/paper disks with glucose-6-phosphate. The following applies: Peridex at a final concentration of 0.04% chlorhexidine, with 100 Mm glucose-6-phosphate, one week at 50° C. On the procedure:
To further study the ability of inhibitors of nonenzymatic browning to prevent the discoloration of protein on a surface, such as that which occurs on the tooth surface, the following surface browning experiment is performed. As a substitute for a pellicle-covered tooth surface, unexposed and developed photographic paper is used to provide a fixed protein (gelatin, i.e., collagen) surface on a paper backing. Five millimeter circles are punched and immersed for one week at 50° C. in a solution of 100 Mm glucose-6-phosphate in a 0.5M phosphate buffer, pH 7.4, containing 3 Mm sodium azide. Glucose-6-phosphate is a sugar capable of participating in nonenzymatic browning at a more rapid rate than glucose. In addition to the glucose-6-phosphate, chlorhexidine and/or a compound of Formula I are included. After incubation, the gelatin/paper disks are rinsed with water, observed for brown color, and photographed.
With `[H]/N=C(\N/C(=N/[H])NCCCCCCNC(=N)NC(=N)Nc1ccc(Cl)cc1)Nc1ccc(Cl)cc1` [chlorhexidine], the “browning of the gelatin/paper disks” value is on record as “significant browning”.

A further data set deals with glycated bovine serum albumin (AGE-BSA) cross-linking to rat tail tendon collagen.
Assay: not given
The settings on record: 4 h, pH 7.4.
In the case of `CC(C=NNc1ccc(C(=O)O)cc1)=NNc1ccc(C(=O)O)cc1` [Methyl Glyoxal Bis-(4-Hydrazinobenzoic Acid) Hydrazone], the midpoint of inhibition, the IC50, lay at 11.5 mM.

As to `CC(C=NNc1ccccc1C(=O)O)=NNc1ccccc1C(=O)O` [Methylglyoxal Bis-(2-Hydrazinobenzoic Acid) Hydrazone], the IC50 was 0.04 mM.
